Measured values: the supplement of paper PMC11451515

Tested on: P12-Ichikawa
Test: cell viability relative to DMSO control; higher = less cytotoxic
Conditions: 48 h
Summary of the method: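 NOMO1 or SEM (500 cells/well) or P12-Ichikawa (1000 cells/well) leukemia cells were adapted for at least four passages in each medium. They were seeded in 1536-well plates (5 μl) and pin-dosed with library compounds in DMSO over an 11-point threefold series, 47 μM to 0.79 nM. CellTiter-Glo One luminescence was read after 48 h at 37°C. Viability is the per-plate percentage relative to DMSO wells, with cell-free wells as background.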

[1] = HPLM + 10% dialyzed FBS, 0.000781 µM
[2] = HPLM + 10% dialyzed FBS, 0.00234 µM
[3] = HPLM + 10% dialyzed FBS, 0.00702 µM
[4] = HPLM + 10% dialyzed FBS, 0.0211 µM
[5] = HPLM + 10% dialyzed FBS, 0.0632 µM
[6] = HPLM + 10% dialyzed FBS, 0.19 µM
[7] = HPLM + 10% dialyzed FBS, 0.569 µM
[8] = HPLM + 10% dialyzed FBS, 1.71 µM
[9] = HPLM + 10% dialyzed FBS, 5.12 µM
[10] = HPLM + 10% dialyzed FBS, 15.4 µM
[11] = HPLM + 10% dialyzed FBS, 46.1 µM
[12] = RPMI 5 mM glucose + 10% FBS, 0.000781 µM
[13] = RPMI 5 mM glucose + 10% FBS, 0.00234 µM
[14] = RPMI 5 mM glucose + 10% FBS, 0.00702 µM
[15] = RPMI 5 mM glucose + 10% FBS, 0.0211 µM
[16] = RPMI 5 mM glucose + 10% FBS, 0.0632 µM
[17] = RPMI 5 mM glucose + 10% FBS, 0.19 µM
[18] = RPMI 5 mM glucose + 10% FBS, 0.569 µM
[19] = RPMI 5 mM glucose + 10% FBS, 1.71 µM
[20] = RPMI 5 mM glucose + 10% FBS, 5.12 µM
[21] = RPMI 5 mM glucose + 10% FBS, 15.4 µM
[22] = RPMI 5 mM glucose + 10% FBS, 46.1 µM
[23] = RPMI 5 mM glucose + 10% dialyzed FBS, 0.000781 µM
[24] = RPMI 5 mM glucose + 10% dialyzed FBS, 0.00234 µM
[25] = RPMI 5 mM glucose + 10% dialyzed FBS, 0.00702 µM
[26] = RPMI 5 mM glucose + 10% dialyzed FBS, 0.0211 µM
[27] = RPMI 5 mM glucose + 10% dialyzed FBS, 0.0632 µM
[28] = RPMI 5 mM glucose + 10% dialyzed FBS, 0.19 µM
[29] = RPMI 5 mM glucose + 10% dialyzed FBS, 0.569 µM
[30] = RPMI 5 mM glucose + 10% dialyzed FBS, 1.71 µM
[31] = RPMI 5 mM glucose + 10% dialyzed FBS, 5.12 µM
[32] = RPMI 5 mM glucose + 10% dialyzed FBS, 15.4 µM
[33] = RPMI 5 mM glucose + 10% dialyzed FBS, 46.1 µM

| SMILES | cell viability [1] [%] | cell viability [2] [%] | cell viability [3] [%] | cell viability [4] [%] | cell viability [5] [%] | cell viability [6] [%] | cell viability [7] [%] | cell viability [8] [%] | cell viability [9] [%] | cell viability [10] [%] | cell viability [11] [%] | cell viability [12] [%] | cell viability [13] [%] | cell viability [14] [%] | cell viability [15] [%] | cell viability [16] [%] | cell viability [17] [%] | cell viability [18] [%] | cell viability [19] [%] | cell viability [20] [%] | cell viability [21] [%] | cell viability [22] [%] | cell viability [23] [%] | cell viability [24] [%] | cell viability [25] [%] | cell viability [26] [%] | cell viability [27] [%] | cell viability [28] [%] | cell viability [29] [%] | cell viability [30] [%] | cell viability [31] [%] | cell viability [32] [%] | cell viability [33] [%] |
| --- | --- | --- | --- | --- | --- | --- | --- | --- | --- | --- | --- | --- | --- | --- | --- | --- | --- | --- | --- | --- | --- | --- | --- | --- | --- | --- | --- | --- | --- | --- | --- | --- | --- |
| COCCOC(=O)C/1=C(C)/NC/2=C(C1C3=CC=CC(=C3)O)/C(=O)CC(C2)C4=C(OC)C=CC=C4 (stereo not drawn) | 94.3 | 97.9 | 102 | 105 | 110 | 100 | 106 | 105 | 91.5 | 86.7 | 26.8 | 103 | 102 | 104 | 112 | 118 | 110 | 113 | 101 | 96.3 | 89.5 | 54.1 | 94.8 | 97.9 | 91.7 | 104 | 101 | 104 | 101 | 94.7 | 87.6 | 88.1 | 46.8 |
| CO[C@H]1C[C@@H]2CC[C@@H](C)[C@@](O)(O2)C(=O)C(=O)N2CCCC[C@H]2C(=O)O[C@H]([C@H](C)C[C@@H]2CC[C@@H](OP(C)(C)=O)[C@H](OC)C2)CC(=O)[C@H](C)/C=C(\C)[C@@H](O)[C@@H](OC)C(=O)[C@H](C)C[C@H](C)/C=C/C=C/C=C/1C |  |  |  |  |  |  |  |  |  |  |  | 119 | 138 | 121 | 126 | 118 | 97.7 | 122 | 96.3 | 88.4 | 100 | 81.4 |  |  |  |  |  |  |  |  |  |  |  |
| CCC1=C[C@@H]2CN(C1)Cc1c([nH]c3ccccc13)[C@@](C(=O)OC)(c1cc3c(cc1OC)N(C)[C@H]1[C@@](O)(C(=O)OC)[C@H](OC(C)=O)[C@]4(CC)C=CCN5CC[C@]31[C@@H]54)C2 | 106 | 110 | 94.4 | 85.4 | 36.2 | 15.4 | 15.9 | 12.6 | 12.8 | 8.96 | 7.62 | 108 | 108 | 96.6 | 59.8 | 29.6 | 16.2 | 18.3 | 16.5 | 11 | 9.49 | 7.18 | 110 | 100 | 99.7 | 89.4 | 59.2 | 21.7 | 29.3 | 25.4 | 22.4 | 13.9 | 10.6 |
| C[C@H]1CN(C[C@@H](C)O1)CC(=O)NC2=CC=C3SC4=C(CC3=C2)C=CC=C4\C5=C\C(=O)\C=C(/O5)N6CCOCC6 | 91.6 | 113 | 73.7 | 110 | 110 | 123 | 116 | 108 | 107 | 80.3 | 51.1 | 97.8 | 113 | 66.9 | 125 | 110 | 120 | 114 | 124 | 109 | 95.8 | 49.8 | 94.7 | 119 | 86.3 | 116 | 120 | 122 | 128 | 118 | 121 | 88.1 | 48.9 |
| O=C(O)[C@H](Cc1c[nH]c2ccccc12)N1C(=O)c2ccccc2C1=O | 98.3 | 109 | 104 | 106 | 99.5 | 99.8 | 105 | 110 | 103 | 102 | 99.3 | 89.6 | 91.9 | 91.3 | 93.4 | 98.3 | 103 | 103 | 97 | 101 | 101 | 94.3 | 91.2 | 90.5 | 91.8 | 102 | 94.4 | 99.5 | 99 | 105 | 95 | 98.6 | 92.2 |
| OC[C@H]1O[C@@H](Oc2ccc(O)cc2)[C@H](O)[C@@H](O)[C@@H]1O | 85.1 | 93.5 | 93.1 | 95.7 | 98.3 | 99.9 | 102 | 101 | 94.2 | 98.4 | 97 | 80.7 | 79.8 | 87 | 94.9 | 95.7 | 86 | 84.7 | 83.6 | 90.9 | 93.1 | 91.3 | 80.1 | 84.8 | 91.1 | 93.4 | 93.6 | 87.8 | 88.4 | 88.7 | 93.1 | 89.6 | 88.4 |
| CNC(=O)c1cccc(-c2ccc3c(N4CCOC[C@@H]4C)nc(N4CCOC[C@@H]4C)nc3n2)c1 | 104 | 106 | 95 | 92.4 | 87.1 | 80.2 | 78.8 | 67.7 | 65.6 | 64.8 | 62.4 | 93.7 | 98.6 | 86.7 | 75.4 | 67.2 | 57.2 | 55.7 | 54.3 | 54.9 | 48.5 | 44.5 | 98.4 | 102 | 89.5 | 80.6 | 72.8 | 61.8 | 64.6 | 58.1 | 49.8 | 44.7 | 39.9 |
| O=C(Cc1cccc(OC(F)(F)F)c1)Nc1ccc(CCCCc2nnc(NC(=O)Cc3ccccn3)s2)nn1 | 120 | 118 | 126 | 112 | 115 | 107 | 101 | 99.4 | 103 | 91.7 | 95.8 | 121 | 113 | 121 | 115 | 103 | 95.6 | 83 | 83.2 | 71.2 | 77.8 | 76.5 |  |  |  |  |  |  |  |  |  |  |  |
| Cc1nc(Nc2ncc(C(=O)Nc3c(C)cccc3Cl)s2)cc(N2CCN(CCO)CC2)n1 | 108 | 104 | 110 | 104 | 111 | 107 | 107 | 69.6 | 14.2 | 15.5 | 15 | 106 | 109 | 102 | 108 | 113 | 109 | 107 | 102 | 56.8 | 21.3 | 23.4 | 104 | 104 | 113 | 103 | 107 | 106 | 109 | 99.3 | 45.5 | 33.7 | 35.3 |
| Cc1c[nH]c(/C=C2\C(=O)Nc3ccccc32)c1CCC(=O)O | 109 | 107 | 111 | 108 | 101 | 111 | 97.2 | 96.5 | 79.2 | 76.5 | 79.8 | 111 | 108 | 115 | 122 | 103 | 118 | 95.2 | 93.1 | 67.2 | 65.8 | 65.7 | 122 | 118 | 123 | 127 | 105 | 106 | 94.7 | 92.4 | 71.7 | 67.3 | 68.7 |
| CN(C)CCOC(c1ccccc1)c1ccccc1 | 104 | 107 | 105 | 103 | 111 | 111 | 112 | 103 | 109 | 111 | 82.8 | 96.1 | 105 | 99.4 | 112 | 110 | 105 | 105 | 105 | 100 | 110 | 85.5 | 94 | 102 | 104 | 104 | 112 | 104 | 105 | 101 | 111 | 96.8 | 83 |
| C#Cc1cccc(Nc2ncnc3cc(OCCOC)c(OCCO)cc23)c1 | 113 | 111 | 113 | 109 | 112 | 113 | 122 | 104 | 105 | 91.6 | 46.2 | 118 | 101 | 107 | 119 | 110 | 119 | 111 | 109 | 98.5 | 95.7 | 49.4 | 115 | 110 | 118 | 110 | 113 | 108 | 106 | 111 | 104 | 91.5 | 43.3 |
| Nc1nc(-c2nn(Cc3ccccc3F)c3ncccc23)nc(N)c1N1CCOCC1 | 92.3 | 100 | 105 | 111 | 111 | 112 | 110 | 109 | 109 | 107 | 95.9 | 93.1 | 97.9 | 98.8 | 116 | 107 | 112 | 110 | 109 | 107 | 111 | 107 | 86.1 | 101 | 100 | 108 | 104 | 92.1 | 107 | 101 | 104 | 103 | 87.3 |
| Fc1ccc(C(c2ccc(F)cc2)N2CCN(C/C=C/c3ccccc3)CC2)cc1 | 110 | 121 | 111 | 109 | 109 | 114 | 108 | 108 | 103 | 99.1 | 96.5 | 118 | 112 | 109 | 121 | 116 | 119 | 112 | 107 | 110 | 106 | 104 | 113 | 104 | 121 | 109 | 102 | 110 | 114 | 106 | 104 | 98 | 95.2 |
| C[C@@H](c1ncncc1F)[C@](O)(Cn1cncn1)c1ccc(F)cc1F | 111 | 115 | 110 | 107 | 107 | 107 | 110 | 108 | 103 | 102 | 89.6 | 123 | 130 | 119 | 121 | 111 | 119 | 116 | 114 | 98.9 | 105 | 92.6 | 109 | 118 | 116 | 105 | 111 | 104 | 108 | 107 | 102 | 89.5 | 91.4 |
| NC(=O)N1c2ccccc2CC(=O)c2ccccc21 | 115 | 116 | 121 | 125 | 124 | 138 | 129 | 128 | 132 | 127 | 134 |  |  |  |  |  |  |  |  |  |  |  |  |  |  |  |  |  |  |  |  |  |  |
